In patent US12171768B2, “IRAK4 degraders and uses thereof” (priority 2021, dated 2024) one finds Diastereomer interconversion data, which are given here for 2 compounds.

This data set can be described thus: Diastereomer interconversion. The class given is physicochemical. Particulars: in vitro and in vivo.

With `Cn1c(=O)n([C@H]2CCC(=O)NC2=O)c2cccc(C#CCOC3CCN(C[C@H]4CC[C@H](n5cc(NC(=O)c6cnn7ccc(N8C[C@H]9C[C@@H]8CO9)nc67)c(C(F)F)n5)CC4)CC3)c21` [Compound B, 5-((1R,4R)-2-oxa-5-azabicyclo[2.2.1]heptan-5-yl)-N-(3-(difluoromethyl)-1-((1r,4R)-4-((4-((3-(1-((S)-2,6-dioxopiperidin-3-yl)-3-methyl-2-oxo-2,3-dihydro-1H-benzo[d]imidazol-4-yl)prop-2-yn-1-yl)oxy)piperidin-1-yl)methyl)cyclohexyl)-1H-pyrazol-4-yl)pyrazolo[1,5-a]pyrimidine-3-carboxamide], the Diastereomer interconversion result was “interconvert rapidly”. With `Cn1c(=O)n([C@@H]2CCC(=O)NC2=O)c2cccc(C#CCOC3CCN(C[C@H]4CC[C@H](n5cc(NC(=O)c6cnn7ccc(N8C[C@H]9C[C@@H]8CO9)nc67)c(C(F)F)n5)CC4)CC3)c21` [Compound C, 5-((1R,4R)-2-oxa-5-azabicyclo[2.2.1]heptan-5-yl)-N-(3-(difluoromethyl)-1-((1r,4R)-4-((4-((3-(1-((R)-2,6-dioxopiperidin-3-yl)-3-methyl-2-oxo-2,3-dihydro-1H-benzo[d]imidazol-4-yl)prop-2-yn-1-yl)oxy)piperidin-1-yl)methyl)cyclohexyl)-1H-pyrazol-4-yl)pyrazolo[1,5-a]pyrimidine-3-carboxamide] the entry was “interconvert rapidly”.
